# Results as given in patent US20080070883A1, “Use of LXR modulators for the prevention and treatment of skin aging” (Wyeth, priority 2006, published 2008).
# Assays:
# LXRα = assay: TaqMan quantitative PCR, LXRα gene expression in NHEKs; format: cell-based, human; conditions: 1 μM, FIG. 1A
# LXRβ = assay: TaqMan quantitative PCR, LXRβ gene expression in NHEKs; format: cell-based, human; conditions: UV-exposed (8 J/m^2), 1 μM, FIG. 1B
# TNFα = assay: TaqMan quantitative PCR, TNFα gene expression in NHEKs; format: cell-based, human; conditions: 1 μM, FIG. 2
# Description: (§1) Add QIAzol® Lysis Reagent (QIAGEN Cat Number 79306) to the cells. Scrape the cells and place into a Falcon Polypropylene tube. Let stand at room temperature for 5 minutes. Add 1 ml of cells to microfuge tubes. Add 200 μl of chloroform, vortex, let stand for 5 minutes. Centrifuge at 4° C. for 15 minutes at 14,000 RPM. Add an equal volume of 70% ETOH (diluted with DEPC water). Add 600 μl to the RNeasy® column from the RNeasy® Mini Kit (QIAGEN Cat. Number 74106) centrifuge at 14,000 RPM at room temperature for 1 minute, discard flow-through. Add remainder of sample to the column, centrifuge, discard flow-through. Add 350 μl of RW1 buffer from the RNeasy® Mini Kit to the column, centrifuge at room temperature for 1 minute, discard flow-through. […] TaqMan technology was used for quantitative PCR for the evaluation of MMP, TNFα, TIMP, IL-8, ASAH1, SPTLC1, SMPD1, LASS2, TXNRD1, GPX3, GSR, CAT, ABCA1, ABCA2, ABCA12, ABCA13, ABCG1, decorin, and LXRα/β gene expression in keratinocytes and fibroblasts. […] Setup TaqMan with QuantiTect Multiplex PCR Kit (QIAGEN cat. Number 204543): 2× master mix: 25 μl; Single Tube Assay: 2.5 μl; Applied Biosystems Primers Probe set (part number 4308329)-18S forward primer: 0.25 μl, 18S reverse primer: 0.25 μl, 18S probe: 0.25 μl; water to 50 μl; 5 μl cDNA. […]
# MMP3 [1] = assay: TaqMan quantitative PCR, MMP3 gene expression in NHEKs; format: cell-based, human; conditions: UV-exposed (8 J/m^2), 1 μM, FIG. 3
# Description: as §1
# TIMP1 [2] = assay: TaqMan quantitative PCR, TIMP1 gene expression in NHEKs; format: cell-based, human; conditions: 1 μM, FIG. 4
# Description: as §1
# IL-8 = assay: TaqMan quantitative PCR, IL-8 gene expression in NHEKs; format: cell-based, human; conditions: UV-exposed (8 J/m^2), 1 μM, FIG. 5
# Description: as §1
# ABCA1 = assay: TaqMan quantitative PCR, ABCA1 gene expression in NHEKs; format: cell-based, human; conditions: 1 μM, FIG. 6A
# Description: as §1
# ABCA2 = assay: TaqMan quantitative PCR, ABCA2 gene expression in NHEKs; format: cell-based, human; conditions: 1 μM, FIG. 6A
# Description: as §1
# ABCA12 = assay: TaqMan quantitative PCR, ABCA12 gene expression in NHEKs; format: cell-based, human; conditions: 1 μM
# Description: as §1
# ABCA13 = assay: TaqMan quantitative PCR, ABCA13 gene expression in NHEKs; format: cell-based, human; conditions: 1 μM, FIG. 6A
# Description: as §1
# ABCG1 = assay: TaqMan quantitative PCR, ABCG1 gene expression in NHEKs; format: cell-based, human; conditions: 1 μM, FIG. 6A
# Description: as §1
# decorin = assay: TaqMan quantitative PCR, decorin gene expression in NHEKs; format: cell-based, human; conditions: UV-exposed (8 J/m^2), 1 μM, FIG. 7
# Description: as §1
# MMP1 = assay: TaqMan quantitative PCR, MMP1 gene expression in BJ human fibroblasts; format: cell-based; conditions: 5 ng/ml rhTNFα, 1 μM, FIG. 8A
# Description: (§2) Add QIAzol® Lysis Reagent (QIAGEN Cat Number 79306) to the cells. Scrape the cells and place into a Falcon Polypropylene tube. Let stand at room temperature for 5 minutes. Add 1 ml of cells to microfuge tubes. Add 200 μl of chloroform, vortex, let stand for 5 minutes. Centrifuge at 4° C. for 15 minutes at 14,000 RPM. Add an equal volume of 70% ETOH (diluted with DEPC water). Add 600 μl to the RNeasy® column from the RNeasy® Mini Kit (QIAGEN Cat. Number 74106) centrifuge at 14,000 RPM at room temperature for 1 minute, discard flow-through. Add remainder of sample to the column, centrifuge, discard flow-through. Add 350 μl of RW1 buffer from the RNeasy® Mini Kit to the column, centrifuge at room temperature for 1 minute, discard flow-through. […]
# (§3) TaqMan technology was used for quantitative PCR for the evaluation of MMP, TNFα, TIMP, IL-8, ASAH1, SPTLC1, SMPD1, LASS2, TXNRD1, GPX3, GSR, CAT, ABCA1, ABCA2, ABCA12, ABCA13, ABCG1, decorin, and LXRα/β gene expression in keratinocytes and fibroblasts. […]
# (§4) Setup TaqMan with QuantiTect Multiplex PCR Kit (QIAGEN cat. Number 204543): 2× master mix: 25 μl; Single Tube Assay: 2.5 μl; Applied Biosystems Primers Probe set (part number 4308329)—18S forward primer: 0.25 μl, 18S reverse primer: 0.25 μl, 18S probe: 0.25 μl; water to 50 μl; 5 μl cDNA. […]
# MMP3 [3] = assay: TaqMan quantitative PCR, MMP3 gene expression in BJ human fibroblasts; format: cell-based; conditions: 5 ng/ml rhTNFα, 1 μM, FIG. 8B
# Description: as §2, §3, §4
# TIMP1 [4] = assay: TaqMan quantitative PCR, TIMP1 gene expression in BJ human fibroblasts; format: cell-based; conditions: 1 μM, FIG. 9
# Description: as §2, §3, §4
# acid ceramidase (ASAH1) = assay: TaqMan quantitative PCR, ASAH1 gene expression in NHEKs; format: cell-based, human; conditions: 1 μM, FIG. 10A
# Description: as §1
# [5] = tested on: serine palmitoyl transferase (SPTLC1); assay: TaqMan quantitative PCR, SPTLC1 gene expression in NHEKs; format: cell-based, human; conditions: 1 μM, FIG. 10A
# Description: as §1
# [6] = tested on: sphingomyelin phosphodiesterase (SMPD1); assay: TaqMan quantitative PCR, SMPD1 gene expression in NHEKs; format: cell-based, human; conditions: 1 μM, FIG. 10A
# Description: as §1
# [7] = tested on: ceramide synthase (LASS2); assay: TaqMan quantitative PCR, LASS2 gene expression in NHEKs; format: cell-based, human; conditions: 1 μM, FIG. 10A
# Description: as §1
# [8] = tested on: thioredoxin reductase (TXNRD1); assay: TaqMan quantitative PCR, TXNRD1 gene expression in NHEKs; format: cell-based, human; conditions: 1 μM, FIG. 11
# Description: as §1
# [9] = tested on: glutathione peroxidase (GPX3); assay: TaqMan quantitative PCR, GPX3 gene expression in NHEKs; format: cell-based, human; conditions: 1 μM, FIG. 11
# Description: as §1
# [10] = tested on: glutathione reductase (GSR); assay: TaqMan quantitative PCR, GSR gene expression in NHEKs; format: cell-based, human; conditions: 1 μM, FIG. 11
# Description: as §1
# catalase (CAT) = assay: TaqMan quantitative PCR, CAT gene expression in NHEKs; format: cell-based, human; conditions: 1 μM, FIG. 11
# Description: as §1
smiles,measurement,setting,value
"O=S(=O)(c1ccccc1)N(CC(F)(F)F)c1ccc(C(O)(C(F)(F)F)C(F)(F)F)cc1 [T1317, N-(2,2,2-trifluoroethyl)-N-{4-[2,2,2-trifluoro-1-hydroxy-1-(trifluoromethyl)ethyl]phenyl}benzene sulfonamide]",expression of LXRα,LXRα; UV-exposed (8 J/m^2),induced
same,expression of LXRα,LXRα; UV-unexposed,induced
same,UV-mediated inhibition of LXRβ expression,LXRβ,reversed
same,UV-induced expression of TNFα,TNFα; UV-exposed (8 J/m^2),reduced
same,basal expression of TNFα,TNFα; UV-unexposed,reduced
same,UV-induced MMP-3 expression,MMP3 [1],inhibition
same,TIMP1 expression,TIMP1 [2]; UV-exposed (8 J/m^2),induced
same,TIMP1 expression,TIMP1 [2]; UV-unexposed,induced
same,UV-induced expression of IL-8,IL-8,reduced
same,ABCA1 expression,ABCA1,induction
same,ABCA2 expression,ABCA2,induction
same,ABCA12 expression,ABCA12; FIG. 6A,induction
same,UV-induced inhibition of ABCA12 expression,"ABCA12; UV-exposed (8 J/m^2), FIG. 6B",reversed
same,ABCA13 expression,ABCA13,induction
same,ABCG1 expression,ABCG1,induction
same,UVB-mediated inhibition of decorin expression,decorin,reversed
same,TNFα-induced MMP1 expression,MMP1,inhibition
same,TNFα-induced MMP-3 expression,MMP3 [3],inhibition
same,TIMP1 expression,TIMP1 [4]; TNFα-exposed (5 ng/ml rhTNFα),induced
same,TIMP1 expression,TIMP1 [4]; TNFα-unexposed,induced
same,ASAH1 expression,acid ceramidase (ASAH1),induction
same,SPTLC1 expression,[5],induction
same,SMPD1 expression,[6],induction
same,LASS2 expression,[7],induction
same,TXNRD1 expression,[8],induction
same,GPX3 expression,[9],induction
same,GSR expression,[10],induction
same,CAT expression,catalase (CAT),induction
